Consider three compounds from publication PMC10578352, “Identification of a Protein Arginine Methyltransferase 7 (PRMT7)/Protein Arginine Methyltransferase 9 (PRMT9) Inhibitor” (Journal of Medicinal Chemistry, 2023).

In one assay the target is T1, GST-HsPRMT9 (Homo sapiens, UniProt Q6P2P2).
T1 construct: made in house; host or cells: E. coli
T1 sequence (Q6P2P2 1-845): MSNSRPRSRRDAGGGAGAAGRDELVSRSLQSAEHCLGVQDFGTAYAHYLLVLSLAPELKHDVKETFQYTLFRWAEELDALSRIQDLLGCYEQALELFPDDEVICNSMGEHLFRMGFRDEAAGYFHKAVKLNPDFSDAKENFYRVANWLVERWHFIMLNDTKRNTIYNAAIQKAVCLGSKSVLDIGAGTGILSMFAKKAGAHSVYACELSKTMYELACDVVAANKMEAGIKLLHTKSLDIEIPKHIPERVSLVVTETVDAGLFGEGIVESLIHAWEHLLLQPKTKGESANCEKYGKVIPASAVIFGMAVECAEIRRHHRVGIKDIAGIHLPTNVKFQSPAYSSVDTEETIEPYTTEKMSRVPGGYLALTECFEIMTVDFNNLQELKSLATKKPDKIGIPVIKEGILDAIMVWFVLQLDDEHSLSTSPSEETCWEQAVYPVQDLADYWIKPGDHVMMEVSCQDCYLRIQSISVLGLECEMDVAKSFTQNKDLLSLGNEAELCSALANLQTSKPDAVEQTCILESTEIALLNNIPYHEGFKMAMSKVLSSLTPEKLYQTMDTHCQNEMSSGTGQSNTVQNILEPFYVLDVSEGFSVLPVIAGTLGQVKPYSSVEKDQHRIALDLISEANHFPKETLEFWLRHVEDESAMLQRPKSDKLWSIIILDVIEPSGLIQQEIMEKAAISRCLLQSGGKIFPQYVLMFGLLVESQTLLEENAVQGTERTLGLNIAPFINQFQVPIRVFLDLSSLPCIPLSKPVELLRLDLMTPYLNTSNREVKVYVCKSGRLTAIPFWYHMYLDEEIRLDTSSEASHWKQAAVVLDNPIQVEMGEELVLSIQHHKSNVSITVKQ
In words: Radioisotope-based assay (SDS-PAGE, fluorography, densitometry), HsPRMT9. The assay is classed as biochemical. On the procedure: (§1) Based on these outcomes, we resolved to explore the effect on the capability to inhibit PRMT9 enzymatic activity of further reduction of the distance between the pharmacophoric moieties. […] After the experiment was repeated with 100, 250, and 500 μM concentrations of each inhibitor, half inhibition was observed only at a concentration of roughly 250 μM (Figure 4d).
(§2) […]. The experiments were performed as reported in the Experimental procedures section. GST-HsPRMT9 (a) and GST-HsPRMT7 (b) were incubated with human GST-SF3B2 (401–550) peptide or recombinant HsH2B, respectively (1 μg of enzyme, 5 μg of substrate), 0.14 μM [^3H]SAM, and the indicated concentrations of tested compounds at the corresponding optimal reaction temperature (37 °C for HsPRMT9, 15 °C for HsPRMT7). C. elegans GST-tagged enzymes PRMT9 (c) and PRMT7 (d) were incubated with GST-CeSFTB-2 (99–248) fragment or recombinant HsH2B, respectively (1 μg of enzyme, 5 μg of substrate), 0.14 μM [^3H]SAM, and the indicated concentrations of tested compounds at the corresponding optimal reaction temperature (25 °C for CePRMT9, 15 °C for CePRMT7). After SDS-PAGE, the gels were treated as previously described[48] and densitometry analysis was done using ImageJ software, and data was plotted as normalized activity to the no inhibitor controls.
(§3) Human PRMT9, C. elegans PRMT9, human PRMT7, and C. elegans PRMT7 plasmids were sequenced, expressed in E. coli as GST-fusion proteins, and purified as previously described.[48] Substrates were also sequenced and purified as described [human GST-SF3B2 (401–550);[13]C. elegans SFTB-2;[48] human histone H2B (New England Biolabs, M2505S)]. Xenopus laevis histone H2B was expressed in E. coli and purified similarly to what was previously reported by Luger et al.[72]
(§4) Reactions consisting of approximately 1 μg of enzyme (human or C. elegans GST-tagged enzymes PRMT9 and PRMT7), reacted with approximately 5 μg of substrate [for human PRMT9, human GST-SF3B2 401–550 fragment; C. elegans PRMT9 with C. elegans GST-SFTB-2 (99–248) fragment, or recombinant human histone H2B from New England Biolabs (M2505S)], were incubated for the indicated time in reaction buffer {50 mM potassium HEPES buffer, 10 mM NaCl, 1 mM dithiothreitol (DTT), pH 8.0 with 0.7 μM S-adenosyl-L-[methyl-^3H]methionine (^3H-AdoMet, PerkinElmer Life Sciences, 82.7 Ci/mmol, 0.55 mCi/mL in 10 mM H2SO4/EtOH [9:1 (v/v)])} in a final reaction volume of 60 μL. Each reaction was incubated at the corresponding optimal reaction temperature (37 °C for human PRMT9, 25 °C for C. elegans PRMT9, and 15 °C for C. elegans and human PRMT7 enzymes. MTA was dissolved in water, and a wavelength scan was taken to determine the final concentration using the extinction coefficient. The final concentrations used are indicated in the figure legends. […]. EML734, EML736, and EML709 were also dissolved in DMSO, and further dilutions were made in DMSO for the working stocks. For controls, no inhibitor reactions were created by the addition of the respective solvent (water for MTA and DMSO for EPZ015666 and EML inhibitors).
(§5) After the reaction incubations with the various concentrations of inhibitors, the reactions were quenched by adding 0.2 volume of 5× SDS sample loading buffer, and subsequently, the reactions were run on a 12.6% polyacrylamide Tris gel. To collect the radioactive signal, the gels were then treated in the same way as previously described.[48]
(§6) After various exposures were collected to ensure linear detection, densitometry analysis was done using ImageJ software, and data were plotted as normalized activity to the no inhibitor controls.

A further assay addresses T2, GST-HsPRMT7 (Homo sapiens, UniProt Q9NVM4).
T2 construct: made in house; host or cells: E. coli
T2 sequence (Q9NVM4 1-692): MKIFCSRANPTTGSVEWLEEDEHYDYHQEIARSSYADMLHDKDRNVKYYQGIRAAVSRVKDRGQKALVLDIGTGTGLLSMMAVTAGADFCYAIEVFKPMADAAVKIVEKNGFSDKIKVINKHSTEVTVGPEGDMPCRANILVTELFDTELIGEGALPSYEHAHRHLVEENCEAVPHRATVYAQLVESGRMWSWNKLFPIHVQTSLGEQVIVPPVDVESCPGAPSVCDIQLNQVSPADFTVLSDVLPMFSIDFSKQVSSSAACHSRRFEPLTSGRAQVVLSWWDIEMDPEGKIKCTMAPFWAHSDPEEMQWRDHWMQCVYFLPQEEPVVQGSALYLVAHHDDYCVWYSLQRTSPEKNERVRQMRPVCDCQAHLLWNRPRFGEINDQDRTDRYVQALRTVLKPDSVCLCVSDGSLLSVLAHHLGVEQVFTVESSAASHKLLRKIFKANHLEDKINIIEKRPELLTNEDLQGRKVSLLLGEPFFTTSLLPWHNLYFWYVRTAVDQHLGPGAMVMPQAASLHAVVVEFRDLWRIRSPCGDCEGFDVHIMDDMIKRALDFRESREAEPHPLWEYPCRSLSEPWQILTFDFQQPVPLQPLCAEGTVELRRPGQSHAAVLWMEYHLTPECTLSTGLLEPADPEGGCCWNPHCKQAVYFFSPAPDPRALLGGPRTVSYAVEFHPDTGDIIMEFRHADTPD
The assay can be described thus: Radioisotope-based assay (SDS-PAGE, fluorography, densitometry), HsPRMT7. The assay is classed as biochemical. The note with it: substrate HsH2B, 15 °C, read-out: % HsPRMT7 residual activity. On the procedure:
as §1, §2, §3, §4
After the reaction incubations with the various concentrations of inhibitors, the reactions were quenched by adding 0.2 volume of 5× SDS sample loading buffer, and subsequently, the reactions were run on a 12.6% polyacrylamide Tris gel. To collect the radioactive signal, the gels were then treated in the same way as previously described.[48] […]

The subject of a further assay is CePRMT9. In words: Radioisotope-based assay (SDS-PAGE, fluorography, densitometry), CePRMT9. The assay is classed as biochemical, Caenorhabditis elegans. Conditions: substrate GST-CeSFTB-2 (99–248), 25 °C. As to the method:
as §1, §2, §3, §4, §5, §6

For another assay, the target named is T3, CePRMT7 (Caenorhabditis elegans, UniProt Q9XW42).
T3 construct: made in house; host or cells: E. coli
The assay can be described thus: Radioisotope-based assay (SDS-PAGE, fluorography, densitometry), CePRMT7. The assay is classed as biochemical. Conditions: 100 uM; substrate HsH2B, 15 °C; read-out: % CePRMT7 residual activity. On the procedure: as §1, §2, §3, §4, §5, §6

In a further assay the target is T4, ASH1L/KMT2H (Homo sapiens, UniProt Q9NR48).
T4 construct: the human recombinant ASH1L (residues 2046–2330, with an N-terminal His-tag); His (N); purchased Reaction Biology Corporation
The assay can be described thus: HotSpot KMT activity assay, ASH1L. In kind it is biochemical. The source says:
; MW = 35.4 kDa; Genbank Accession # NM_018489), or the human recombinant EZH2-containing five-member polycomb repressive complex 2 (including EZH2 residues 2–746, AEBP2 2–517, EED 2–441, RbAp48 2–425, SUZ12 2–739; all full-length; with N-terminal Flag-tag on EED and N-terminal His-tag on all others; MW = 333.8 kDa; Genbank Accession # NM_001203247, NM_001114176, NM_003797, NM_005610, NM_015355), or the human recombinant G9a (residues 913–1193, C-terminus; with an N-terminal His-tag; MW = 34.6 kDa; Genbank Accession # NM_006709.3), or the human recombinant MLL1 complex (including MLL1 residues 3745–3969, C-terminus, WDR5 22–334, C-terminus, RbBP5 1–538, C-terminus, ASH2L 2–534, C-terminus, DPY-30 1–99, C-terminus; N-terminal His-tag on all subunits; MW = 212.0 kDa; Genbank Accession # NM_005933, NM_017588, NM_005057, NM_001105214, NM_0325742), or the human recombinant SET7/9 (residues 2–366, C-terminus; with a N-terminal GST-tag and a C-terminal His-tag; MW = 68.5 kDa; Genbank Accession # NM_030648), or the human recombinant SMYD3 (residues 2–428, C-terminus; C-terminal His-tag; MW = 50.1 kDa; Genbank Accession # NM_001167740), or the human recombinant SUV39H2 (residues 46–410, C-terminus; N-terminal fusion protein with a C-terminal His-tag; MW = 98.8 kDa; GenBank Accession No. NM_001193424), or the human recombinant DOT1L (residues 1–416; N-terminal GST-tag; MW = 80.0 kDa; Genbank Accession # NM_032482) was added to a solution of the proper substrate (oligo nucleosomes for ASH1L, MLL1 complex, and DOT1L, final concentration 0.05 mg/mL; core histone for EZH2 complex and SET7/9, final concentration 0.05 mg/mL; histone H3 for SUV39H2, final concentration 5 μM; histone H3 1–21 for G9a, final concentration 2.5 μM) in freshly prepared reaction buffer (50 mM Tris-HCl (pH 8.5), 5 mM MgCl2, 50 mM NaCl, 1 mM DTT, 1 mM PMSF, 1% DMSO) and gently mixed. […] After incubation for 60 min at 30 °C, the reaction mixture was delivered to filter paper for detection (as assessed by scintillation). […] Values obtained for each compound are mean ± SD determined for two separate experiments.

[1] abbreviates: substrate GST-SF3B2 (401–550), 37 °C, read-out: % HsPRMT9 residual activity.

T3 sequence (Q9XW42 whole entry): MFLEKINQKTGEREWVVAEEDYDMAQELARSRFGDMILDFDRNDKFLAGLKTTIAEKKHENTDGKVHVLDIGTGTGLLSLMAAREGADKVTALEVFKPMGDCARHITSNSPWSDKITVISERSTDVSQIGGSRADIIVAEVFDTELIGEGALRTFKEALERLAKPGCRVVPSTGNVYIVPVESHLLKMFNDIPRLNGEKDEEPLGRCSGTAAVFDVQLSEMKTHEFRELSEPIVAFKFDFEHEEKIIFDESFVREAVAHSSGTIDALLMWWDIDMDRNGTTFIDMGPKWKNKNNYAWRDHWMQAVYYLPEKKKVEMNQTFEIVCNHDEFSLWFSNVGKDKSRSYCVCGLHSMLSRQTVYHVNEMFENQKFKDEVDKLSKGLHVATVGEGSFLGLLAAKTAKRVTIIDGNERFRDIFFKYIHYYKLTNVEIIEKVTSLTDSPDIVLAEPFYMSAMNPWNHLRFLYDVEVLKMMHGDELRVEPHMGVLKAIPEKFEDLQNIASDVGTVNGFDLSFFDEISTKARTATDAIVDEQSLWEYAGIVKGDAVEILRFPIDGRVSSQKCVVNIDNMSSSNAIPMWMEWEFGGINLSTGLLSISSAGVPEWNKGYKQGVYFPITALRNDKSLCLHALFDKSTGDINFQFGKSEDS

Consider `O=C(NC[C@H](O)CN1CCc2ccccc2C1)c1cc(NC2COC2)ncn1` [EPZ015666, reference compound], for which the remaining activity at 100 µM was determined as 99.8% on GST-HsPRMT9 (setting [1]), 120% on GST-HsPRMT7 and 131% on CePRMT7. Further, the remaining activity at 250 µM at GST-HsPRMT9 (250 uM, substrate GST-SF3B2 (401–550), 37 °C, read-out: % HsPRMT9 residual activity) came out at 105%. At GST-HsPRMT9 (500 uM, substrate GST-SF3B2 (401–550), 37 °C, read-out: % HsPRMT9 residual activity), the remaining activity at 500 µM turned out to be 98%. Moreover, the “inhibition of HsPRMT9 (in words)” value on GST-HsPRMT9 (up to 500 μM) was “inactive”. In addition, the “% CePRMT9 residual activity” value in the assay with CePRMT9 (100 uM) is recorded as 139.23%; with CePRMT9 (250 uM), 132.20%; in the assay with CePRMT9 (500 uM), 105.26%.
Take `CSC[C@H]1O[C@@H](n2cnc3c(N)ncnc32)[C@H](O)[C@@H]1O` [MTA, 5′-Deoxy-5′-(methylthio)adenosine, reference compound]: the “inhibition of HsPRMT9 (in words)” value against GST-HsPRMT9 (100 μM) is listed as “good inhibition only at 100 μM”. Besides, the remaining activity at 100 µM at GST-HsPRMT9 (setting [1]) was 26%; at GST-HsPRMT7, 46.8%; on CePRMT7, 130%. Moreover, in the assay on CePRMT9 (100 uM), the “% CePRMT9 residual activity” value was 23.57%.
For `CN1C(=O)[C@@]23C[C@]4([C@]56C[C@@]78SS[C@@](CO)(C(=O)N7[C@H]5Nc5ccccc56)N(C)C8=O)c5ccccc5N[C@@H]4N2C(=O)[C@]1(CO)SS3` [chaetocin, reference compound], on ASH1L/KMT2H, the IC50 amounted to 0.025 µM.

The IC50 is the concentration at which inhibition is half-maximal.
